{"source": "ChEMBL document CHEMBL1139070", "about": "“Synthesis and characterization of poly (amino ester) for slow biodegradable gene delivery vector” (Bioorg Med Chem, 2007)", "key": {"[1]": {"assay": "Cytotoxicity against HEPG2 cells assessed as cell viability at 200 ug/ml by MTT method", "type": "cell-based", "conditions": "human, read-out: Activity"}, "[2]": {"assay": "Cytotoxicity against C2C12 cells assessed as cell viability at 200 ug/ml by MTT method", "type": "cell-based, Homo sapiens", "conditions": "read-out: Activity"}, "[3]": {"assay": "Cytotoxicity against HEPG2 cells assessed as cell viability at 200 ug/ml after 24 hrs by MTT method", "type": "cell-based", "conditions": "human, read-out: Activity"}, "[4]": {"assay": "Cytotoxicity against C2C12 cells assessed as cell viability at 200 ug/ml after 24 hrs by MTT method", "type": "cell-based", "conditions": "read-out: Activity"}, "C2C12": {"test_system": "C2C12", "assay": "Cytotoxicity against C2C12 cells assessed as cell viability upto 30 ug/ml after 24 hrs by MTT method", "type": "cell-based", "conditions": "c2c12, 24 h"}}}
{"compound": "CCCCCC(=O)OCCN(CCOC(=O)CCN(CCC(=O)OC)CCN1CCC(=O)OCCCN2CCOC(=O)CCN(CCC(=O)OCCN(CCOC(=O)CCCCC)C(COC(=O)CCCCC)(COC(=O)CCCCC)COC(=O)CCN3CCC(=O)OCC2(CO)COC(=O)CCN(CCN(CCC(=O)OC)CCC(=O)OCC(COC(=O)CCCCC)(COC(=O)CCCCC)N(CCOC(=O)CCCCC)CCOC(=O)CCCCC)CCC(=O)OCCN(C(CO)(COC(=O)CCCCC)COC(=O)CCCCC)CCOC(=O)CCN(CCC(=O)OCC(COC(=O)CCCCC)(COC(=O)CCCCC)N(CCOC(=O)CCCCC)CCOC(=O)CCCCC)CC3)CCN(CCC(=O)OC)CC(=O)OCCN(CCOC(=O)CCCCC)C(CO)(COC(=O)CCCCC)COC(=O)CC1)C(CO)(COC(=O)CCCCC)COC(=O)CCCCC", "note": "(stereo not given)", "values": [{"measurement": "viability at 200 ug/ml", "setting": "[1]", "result": 82, "unit": "%"}, {"measurement": "viability at 200 ug/ml", "setting": "[2]", "result": 73, "unit": "%"}, {"measurement": "viability at 24 h, 200 ug/ml", "setting": "[3]", "result": 87, "unit": "%"}, {"measurement": "viability at 24 h, 200 ug/ml", "setting": "[4]", "result": 85, "unit": "%"}, {"measurement": "Activity", "setting": "C2C12", "result": "Non-toxic"}]}
